Patent US9707267B2, “Beta-turn peptidomimetic cyclic compounds for treating dry eye” (Mimetogen Pharmaceuticals, Inc., priority 2008, dated 2017)
Values joined by “and” are separate entries in the source; they are usually repeats but may differ in a detail not shown here. Identical values can stand only once. Marks after values point to notes of the source that are not given here.

Columns and labels:
Type in all cases: in vivo
[1] = test system: Scopolamine Induced Rat Dry Eye Model; assay: Scopolamine induced rat dry eye model, tear break-up time (Example 5); details: for Tear Break-Up Time: ± SD
Protocol: (§1) Dry eye was induced using scopolamine hydrobromide (Sigma-Aldrich, St. Louis, Mo.), which was continuously and systemically delivered to the animals via an osmotic pump (2ML4 Alzet®; CedarLane, Burlington, Ontario) filled with scopolamine and implanted subcutaneously in the mid dorsal area between the scapulae. Scopolamine was delivered for a twenty-eight day period at 12.5 mg/day, which translated to 30.0±1.5 mg/kg via osmotic pump.
(§2) Treatments for G2-G6 continued daily for seventeen days (up to an including day twenty-one). Thereafter, treatments were terminated but the study continued for another week. During treatment, each animal was anesthetized in an isoflurane chamber. Once asleep, each animal received a 5 μL topical instillation of test article into the lower conjunctival sac of both eyes using a calibrated micropipette. If a clinical endpoint was also being tested, the test article was topically instilled at the end of the testing.
Tear break-up times were tested on day 13 (after 8 daily treatments), day 21 (after 16 daily treatments), and day 28 (after treatment was stopped for 7 days). TBUT was evaluated by instillation of 10 μL sodium fluorescein solution (0.2% in sterile saline) in the upper conjunctival sac of the anaesthetized animal. The lids were blinked manually to distribute the fluorescein with the tear film. Under the cobalt blue light of a portable slit lamp ophthalmoscope (Reichert Ophthalmic Instruments, Depew, N.Y.), the eye was held open and the time until one or more black streaks appeared in the precorneal tear film was recorded. For each eye, a minimum of triplicate readings were made with fresh fluorescein solution.

[2] = test system: Scopolamine Induced Rat Dry Eye Model; assay: Scopolamine induced rat dry eye model, tear fluorescein clearance (Example 5); details: ± SD
Protocol: as §1, §2
[…] Tear fluorescein clearance was evaluated as described for humans (Alfonso, A. A., et al., “Correlation of Tear Fluorescein Clearance and Schirmer Test Scores with Ocular Irritation Symptoms,” Ophthalmology 106:803-810 (1999), which is incorporated herein by reference in its entirety) and modified for rats (Chen, W., et al., “Keratoconjunctivitis Sicca Modifies Epithelial Stem Cell Proliferation Kinetics in Conjunctiva,” Cornea 26:1101-1106 (2007), which is incorporated herein by reference in its entirety). Animals were lightly sedated with Isoflurane and two microliters of 1% sodium fluorescein (Sigma-Aldrich, St. Louis, Mo.) solution (in sterile saline) was applied to the lower conjunctival sac. The animals awoke within two minutes. After fifteen minutes, the animals were re-sedated and the fluorescein-stained tear fluid was collected with a phenol-red cotton thread (as described for Schirmer testing). The threads were immediately sealed in 1.5 mL polypropylene Eppendorf tubes shielded from light until fluorophotometric analysis. The volume of the collected tear fluid was determined by the length of cotton wetting in mm. After, 100 μl of phosphate-buffered saline (PBS) was added, the tubes were spun at 12,000 rpm for five minutes and the fluid transferred to a 96-well polystyrene microtiter plate (Corning Life Sciences #2592, Fisher Scientific, Nepean, Ontario). A standard well was prepared on each plate, which consisted of a phenol-red thread placed in 100 μl PBS containing 2 μl of 1% sodium fluorescein solution. Fluorescence was measured immediately using a fluorescence microplate reader (FLUOstar OPTIMA, BMG Labtech, Germany) after setting the gain to the standard well. The concentration of fluorescein in tears was calculated from the fluorescence units divided by the mm of cotton wetting (Fu/mm).

[3] = test system: Scopolamine Induced Rat Dry Eye Model; assay: Scopolamine induced rat dry eye model, mucin in tear fluid washings, ELLA (Example 5); details: for Tear Mucin: ± SD
Protocol: as §1, §2
Tear fluid washings were collected from all six groups of rats on day 12 (after 7 daily treatments), day 19 (after 14 daily treatments) and day 28 (after treatment was stopped for 7 days) after instillation of 5 μL sterile saline in the lower conjunctival sac of the anaesthetized animal. The lids were blinked gently to mix the tear film with the saline. The diluted tear fluid was collected with a 5 μL volume glass capillary tube (Drummond Scientific Co, Broomhall, Pa.) by capillary action from the tear meniscus in the lateral canthus. Approximately 4-5 μL were routinely collected. In very dry eyes, a second 5 μL aliquot of saline was instilled before collection.
The concentrations of mucin glycoprotein in the diluted tear fluid washings were determined by an enzyme-linked lectin assay (ELLA). A sample containing 3 μg total protein was diluted to 100 μL in carbonate buffer pH 9.2 and transferred to a 96-well polystyrene microtiter plate (Corning Life Sciences #2592, Fisher Scientific, Nepean, Ontario). A dilution series of bovine submaxillary mucin (Sigma, St. Louis, Mo.) was included on each plate as the standard. The plates were coated by evaporation at 37° C. overnight. After, the plates were washed three times with wash buffer [PBS containing 0.3% BSA, 0.05% Tween-20] then blocked for nonspecific binding with PBS containing 3% BSA and 0.05% Tween-20 at 37° C. for one hour. The wells were rinsed three times in wash buffer, and then incubated in 2 μg/mL biotinylated UEA-1 diluted in wash buffer (Vector Labs, Burlingame, Calif.) at 37° C. for one hour. The wells were rinsed three times in wash buffer, and then incubated in 1 μg/mL HRP-conjugated neutravidin diluted in wash buffer (Pierce, Rockford, Ill.) at 37° C. for one hour. After the wells were rinsed three times in wash buffer the color development was performed with TMB (Promega, Madison, Wis.) and stopped with 0.5N Sulfuric acid. The concentration of mucin in the tear fluid washings was calculated as the ng mucin divided by the volume of tear fluid washing in μL that gave 3 μg total protein.

[4] = 0.4% topical 1× daily Days 5-21, Day 28 (7 days after treatment stopped)
[5] = 1% dose vs untreated and saline control groups
[6] = 1.0% topical 1× daily Days 5-21, Day 28 (7 days after treatment stopped)
[7] = 2.5% topical 1× daily Days 5-21, Day 28 (7 days after treatment stopped)
[8] = 0.00053% topical 1× daily Days 5-21, Day 28 (7 days after treatment stopped)

## NCCCC[C@@H]1NC(=O)[C@H](CCC(=O)O)NC(=O)c2cc([N+](=O)[O-])ccc2OCCC(C(=O)NCC(=O)O)NC1=O (stereo partly shown) [Compound D3]
[1]; 0.4% topical 1× daily Days 5-21, Day 13
  Tear Break-Up Time: 4.5 ± 1.7^b seconds
[1]; 0.4% topical 1× daily Days 5-21, Day 21
  Tear Break-Up Time: 4.4 ± 1.7 s
[1]; [4]
  Tear Break-Up Time: 4.3 ± 0.8 s
[1]; [5]
  changes in TBUT at Day 28 as compared to Day 13 (in words): statistically significantly improved TBUT
[1]; 1.0% topical 1× daily Days 5-21, Day 21
  Tear Break-Up Time: 5.1 ± 1.9 s
[1]; [6]
  Tear Break-Up Time: 6.4 ± 1.2 s
[1]; 2.5% topical 1× daily Days 5-21, Day 13
  Tear Break-Up Time: 7.0 ± 2.3 s
[1]; 2.5% topical 1× daily Days 5-21, Day 21
  Tear Break-Up Time: 5.8 ± 2.1 s
[1]; [7]
  Tear Break-Up Time: 5.0 ± 1.3 s
[2]; 0.4% group, Day 2, before treatment start (day 5)
  Tear Fluorescein Clearance: 516 ± 305 FU/mm
[2]; 0.4% group, Day −1, baseline, before treatment start (day 5)
  Tear Fluorescein Clearance: 288 ± 247 FU/mm
[2]; 0.4% topical 1× daily Days 5-21, Day 5 (test before first instillation)
  Tear Fluorescein Clearance: 969 ± 732 FU/mm
[2]; 0.4% topical 1× daily Days 5-21, Day 7
  Tear Fluorescein Clearance: 296 ± 156 FU/mm
[2]; 0.4% topical 1× daily Days 5-21, Day 14
  Tear Fluorescein Clearance: 635 ± 599 FU/mm
[2]; 0.4% topical 1× daily Days 5-21, Day 20
  Tear Fluorescein Clearance: 667 ± 508 FU/mm
[2]; 1.0% group, Day 2, before treatment start (day 5)
  Tear Fluorescein Clearance: 880 ± 673 FU/mm
[2]; 1.0% group, Day −1, baseline, before treatment start (day 5)
  Tear Fluorescein Clearance: 575 ± 682 FU/mm
[2]; 1.0% topical 1× daily Days 5-21, Day 5 (test before first instillation)
  Tear Fluorescein Clearance: 550 ± 369 FU/mm
[2]; 1.0% topical 1× daily Days 5-21, Day 7
  Tear Fluorescein Clearance: 1098 ± 639 FU/mm
[2]; 1.0% topical 1× daily Days 5-21, Day 14
  Tear Fluorescein Clearance: 686 ± 306 FU/mm
[2]; 1.0% topical 1× daily Days 5-21, Day 20
  Tear Fluorescein Clearance: 1067 ± 773 FU/mm
[2]; 2.5% group, Day 2, before treatment start (day 5)
  Tear Fluorescein Clearance: 777 ± 592 FU/mm
[2]; 2.5% group, Day −1, baseline, before treatment start (day 5)
  Tear Fluorescein Clearance: 428 ± 312 FU/mm
[2]; 2.5% topical 1× daily Days 5-21, Day 5 (test before first instillation)
  Tear Fluorescein Clearance: 671 ± 344 FU/mm
[2]; 2.5% topical 1× daily Days 5-21, Day 7
  Tear Fluorescein Clearance: 561 ± 231 FU/mm
[2]; 2.5% topical 1× daily Days 5-21, Day 14
  Tear Fluorescein Clearance: 791 ± 235 FU/mm
[2]; 2.5% topical 1× daily Days 5-21, Day 20
  Tear Fluorescein Clearance: 673 ± 170 FU/mm
[3]; 0.4% topical 1× daily Days 5-21, Day 12
  Tear Mucin: 2.7 ± 2.2 ng/µL
[3]; 0.4% topical 1× daily Days 5-21, Day 19
  Tear Mucin: 6.8 ± 3.2 ng/µL
[3]; [4]
  Tear Mucin: 4.4 ± 3.8 ng/µL
[3]; [5]
  changes in mucin production at Day 28 as compared to Day 12 (in words): statistically significantly increased mucin production
[3]; 1.0% topical 1× daily Days 5-21, Day 12
  Tear Mucin: 3.3 ng/µL and 3.3 ± 1.9 ng/µL
[3]; 1.0% topical 1× daily Days 5-21, Day 19
  Tear Mucin: 9.1 ng/µL and 9.1 ± 5.1 ng/µL
[3]; [6]
  Tear Mucin: 6.8 ng/µL and 6.8 ± 4.9 ng/µL
[3]; 2.5% topical 1× daily Days 5-21, Day 12
  Tear Mucin: 1.6 ± 0.9 ng/µL
[3]; 2.5% topical 1× daily Days 5-21, Day 19
  Tear Mucin: 6.5 ± 2.4 ng/µL
[3]; [7]
  Tear Mucin: 3.0 ± 1.1 ng/µL

## NGF: nerve growth factor (recombinant human), positive control
[1]; 0.00053% topical 1× daily Days 5-21, Day 13
  Tear Break-Up Time: 5.2 ± 1.6 s
[1]; 0.00053% topical 1× daily Days 5-21, Day 21
  Tear Break-Up Time: 4.7 ± 0.8 s
[1]; [8]
  Tear Break-Up Time: 4.2 ± 0.8 s
[2]; 0.00053% group, Day 2, before treatment start (day 5)
  Tear Fluorescein Clearance: 933 ± 824 FU/mm
[2]; 0.00053% group, Day −1, baseline, before treatment start (day 5)
  Tear Fluorescein Clearance: 483 ± 562 FU/mm
[2]; 0.00053% topical 1× daily Days 5-21, Day 5 (test before first instillation)
  Tear Fluorescein Clearance: 804 ± 432 FU/mm
[2]; 0.00053% topical 1× daily Days 5-21, Day 7
  Tear Fluorescein Clearance: 1080 ± 572 FU/mm
[2]; 0.00053% topical 1× daily Days 5-21, Day 14
  Tear Fluorescein Clearance: 1097 ± 1112 FU/mm
[2]; 0.00053% topical 1× daily Days 5-21, Day 20
  Tear Fluorescein Clearance: 861 ± 414 FU/mm
[3]; 0.00053% topical 1× daily Days 5-21, Day 12
  Tear Mucin: 3.0 ± 2.3 ng/µL
[3]; 0.00053% topical 1× daily Days 5-21, Day 19
  Tear Mucin: 6.8 ± 3.8 ng/µL
[3]; [8]
  Tear Mucin: 2.4 ± 2.0 ng/µL
